Data reported in the supplement of paper PMC8253809.

Assays:
Assay in all cases: area under dose-response curve of % growth inhibition (log2 RLU vs DMSO / staurosporine), 1e-11 to 1e-4 M (% x log10 M); higher = more growth inhibition
DIPGX29 = test system: DIPGX29 (H3.3 K27M diffuse intrinsic pontine glioma line)
Method in brief: (§1)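 Patient-derived pHGG/DIPG cell lines and astrocyte controls were grown on 1% Geltrex-coated 384-well plates and exposed to a 10-point threefold dilution series (mean top concentration 35 μM), in triplicate. Exposure was 7 days (iAstro 3 days) at 37 °C, 5% CO2. CellTiter-Glo luminescence was log2-transformed and normalised per plate to % activity between solvent and positive controls. Area under the curve was taken by trapezoid rule from the fitted log-logistic curve, or from a smoothing spline when the sigmoid fit failed.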

DIPGX37 = test system: DIPGX37 (H3.3 K27M diffuse intrinsic pontine glioma line)
Method in brief: as §1

HGGX39 = test system: HGGX39 (paediatric high-grade glioma line)
Method in brief: as §1

HGGX6 = test system: HGGX6 (H3.3 G34R paediatric high-grade glioma line)
Method in brief: as §1

SMILES	area under dose-response curve (DIPGX29)	area under dose-response curve (DIPGX37)	area under dose-response curve (HGGX39)	area under dose-response curve (HGGX6)
N[C@H](CCC(=O)N[C@@H](Cc1c[nH]c2ccccc12)C(=O)O)C(=O)O [GOLOTIMOD]	8.23	15.2	0.705	5.25
CCCOc1ccn2c(C(C)=O)cc(-c3ccccc3S(C)(=O)=O)c2c1 [GSK2801]	19.1	8.52	10.4	21.4
COc1ccccc1C(=O)Nc1cc2c(cc1N1CCCCC1)n(C)c(=O)n2C [GSK-5959]	8.32	76.9	41.9	45.8
c1ccc([C@@H]2C[C@H]2NC2CCNCC2)cc1 [GSK-LSD1]	0	5.85	0	0
Nc1ncn([C@H]2C[C@H](OP(=O)(O)OC[C@H]3O[C@@H](n4cnc5c(=O)[nH]c(N)nc54)C[C@@H]3O)[C@@H](CO)O2)c(=O)n1 [GUADECITABINE]	0	16.4	0	0
CCN(CCO)CCCC(C)Nc1ccnc2cc(Cl)ccc12 (centres undefined) [HYDROXYCHLOROQUINE]	5.15	8.17	0	1.95
CCC(=O)N1CCOc2c(cc(-c3ccc(OC)c(OC)c3)cc2OC[C@H]2CCCN(C)C2)C1 [I-CBP112]	14.1	18	2.35	16.4
COc1cc(C(C)=O)ccc1OCCCN1CCC(c2noc3cc(F)ccc23)CC1 [ILOPERIDONE]	15.1	13.2	10.3	5.98
O=C(O)c1ccc(O)c2ncccc12 [IOX1]	3.7	9.36	2.63	5.89
O=C(O)CNC(=O)c1c(O)c2ccccc2n(Cc2ccccc2)c1=O [IOX2]	9.33	6.07	12.7	12.6
CCOC(=O)c1ccnc(CNCC(=O)N(CC)CCN(C)C)c1 [KDM5-C70]	9.21	3.66	7.74	2.7
Cc1oncc1C(=O)Nc1ccc(C(F)(F)F)cc1 [LEFLUNOMIDE]	5.84	2.94	4.82	2.22
CC(N[C@H]1C[C@@H]1c1ccccc1)c1ccc2c(c1)OCCO2 (some centres undefined) [LSD1-C76]	6.56	24	12	7.75
CN(Cc1cnc2nc(N)nc(N)c2n1)c1ccc(C(=O)N[C@@H](CCC(=O)O)C(=O)O)cc1 [METHOTREXATE]	44.1	30.5	39.9	58.8
Clc1ccc(C(c2ccccc2Cl)C(Cl)Cl)cc1 (centres undefined) [MITOTANE]	12.9	16.1	8.7	12.5
C[C@@H]1C[C@H]2[C@@H]3CCC4=CC(=O)C=C[C@]4(C)[C@@]3(Cl)[C@@H](O)C[C@]2(C)[C@@]1(OC(=O)c1ccco1)C(=O)CCl [MOMETASONE FUROATE]	42.1	40.5	20.8	8.37

SMILES	area under dose-response curve (DIPGX29)	area under dose-response curve (DIPGX37)	area under dose-response curve (HGGX39)	area under dose-response curve (HGGX6)
CC(C)Oc1ccc(-c2c[nH]cc2CN(C)CCN)cc1 [MS023]	10.9	10.6	8.58	14.7
CNCCN1CCC(OCc2ccccc2)CC1 [MS049]	19.1	10.6	9.22	11.9
COc1cc(C#N)ccc1S(=O)(=O)Nc1ccc2c(c1)cc(C)c(=O)n2C [NI-57]	13.6	7.6	22.9	15.9
CC1CS(=O)(=O)CCN1/N=C/c1ccc([N+](=O)[O-])o1 (centres undefined) [NIFURTIMOX]	18.2	17.9	23.6	22
Cc1cn(-c2cc(NC(=O)c3ccc(C)c(Nc4nccc(-c5cccnc5)n4)c3)cc(C(F)(F)F)c2)cn1 [NILOTINIB]	14.3	18.9	14.9	16.8
Cc1ncc(CNC(=O)N(CCCl)N=O)c(N)n1 [NIMUSTINE]	1.11	0	1.19	1.35
COc1ccc2c(c1OC)C(=O)O[C@@H]2[C@H]1c2c(cc3c(c2OC)OCO3)CCN1C [NOSCAPINE]	3.97	4.1	3.21	3.61
CN1CCN(c2ccc(-c3cccc(CN4CCOCC4)c3)cc2NC(=O)c2c[nH]c(=O)cc2C(F)(F)F)CC1 [OICR-9429]	6.88	4.44	6.53	15.6
Cc1ccc(Nc2nccc(N(C)c3ccc4c(C)n(C)nc4c3)n2)cc1S(N)(=O)=O [PAZOPANIB]	14.4	12.6	14.8	16.8
Nc1nc2[nH]cc(CCc3ccc(C(=O)N[C@@H](CCC(=O)O)C(=O)O)cc3)c2c(=O)[nH]1 [PEMETREXED]	34.6	9.28	23.2	12.7
OC[C@H]1O[C@@H](n2cnc3c2N=CNC[C@H]3O)C[C@@H]1O [PENTOSTATIN]	3.92	10.9	10	5.39
COc1ccccc1S(=O)(=O)Nc1ccc2c(c1)CN(C)C(=O)N2 [PFI-1]	23.7	27.8	20.6	17.1
O=C(/C=C/N1C[C@H]2C[C@@H]1CN2c1ccccn1)c1ccccc1O [PFI-3]	9.58	20.6	10.6	11.5
COc1ccccc1C(=O)Nc1cc2c(cc1N1CCCC1)n(C)c(=O)n2C [PFI-4]	21.9	6.98	20.5	18.2
CC(C)N(C[C@H]1O[C@@H](n2cnc3c(N)ncnc32)[C@H](O)[C@@H]1O)[C@H]1C[C@@H](CCc2nc3cc(C(C)(C)C)ccc3[nH]2)C1 [PINOMETOSTAT]	6.21	14.5	0.36	4.37
